ChEMBL document CHEMBL1201861, “Genomics of Drug Sensitity in Cancer screening data, Wellcome Trust Sanger Institute”

Assays:
Assay type in all cases: functional, cell-based
RL = assay: cells; conditions: Homo sapiens
Description: SANGER: Inhibition of human RL cell growth in a cell viability assay.

KU-19-19 = assay: cells; conditions: Homo sapiens
Description: SANGER: Inhibition of human KU-19-19 cell growth in a cell viability assay.

SCC-4 = assay: cells; conditions: Homo sapiens;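 further: growth inhibition of human SCC-4 cells, read out as cell viability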
Description: SANGER: Inhibition of human SCC-4 cell growth in a cell viability assay.

YKG-1 = assay: cells; conditions: Homo sapiens;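 further: cell growth inhibition, read out with a viability assay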
Description: SANGER: Inhibition of human YKG-1 cell growth in a cell viability assay.

A-375 = assay: cells; conditions: Homo sapiens;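 further: growth inhibition of A375 cells, read out with a cell viability assay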
Description: SANGER: Inhibition of human A375 cell growth in a cell viability assay.

Panc1005 = assay: cells; conditions: Homo sapiens;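 further: growth inhibition of human PANC-10-05 cells, measured by a cell viability assay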
Description: SANGER: Inhibition of human PANC-10-05 cell growth in a cell viability assay.

HCC1954 = assay: cells; conditions: Homo sapiens;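 further: growth inhibition of human HCC1954 cells, read out with a cell viability assay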
Description: SANGER: Inhibition of human HCC1954 cell growth in a cell viability assay.

G-361 = assay: cells; conditions: Homo sapiens
REH = assay: cells; conditions: Homo sapiens;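 further: growth inhibition of REH cells determined with a cell viability read-out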
Description: SANGER: Inhibition of human REH cell growth in a cell viability assay.

SW48 = assay: cells; conditions: Homo sapiens;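 further: growth inhibition of SW48 cells, read out with a cell viability assay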
Description: SANGER: Inhibition of human SW48 cell growth in a cell viability assay.

NCI-H1694 = assay: cells; conditions: Homo sapiens;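 further: cell viability assay measuring inhibition of growth in human NCI-H1694 cells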
Description: SANGER: Inhibition of human NCI-H1694 cell growth in a cell viability assay.

HCC2157 = assay: cells; conditions: Homo sapiens;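 further: growth inhibition of the cancer cell line, read out as cell viability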
Description: SANGER: Inhibition of human HCC2157 cell growth in a cell viability assay.

NCI-H441 = assay: cells; conditions: Homo sapiens;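 further: growth inhibition of NCI-H441 cells, read out with a cell viability assay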
Description: SANGER: Inhibition of human NCI-H441 cell growth in a cell viability assay.

CA46 = assay: cells; conditions: Homo sapiens;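 further: growth inhibition of human CA46 cells, read out by a cell viability assay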
Description: SANGER: Inhibition of human CA46 cell growth in a cell viability assay.

ME-180 = assay: cells; conditions: Homo sapiens;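 further: cell viability assay measuring growth inhibition of ME-180 cells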
Description: SANGER: Inhibition of human ME-180 cell growth in a cell viability assay.

DK-MG = assay: cells; conditions: Homo sapiens;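 further: growth inhibition of DK-MG cells, read out with a cell viability assay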
Description: SANGER: Inhibition of human DK-MG cell growth in a cell viability assay.

OVCAR-5 = assay: cells; conditions: Homo sapiens;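 further: growth inhibition of human OVCAR-5 cells, read out with a cell viability assay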
Description: SANGER: Inhibition of human OVCAR-5 cell growth in a cell viability assay.

NCI-H1963 = assay: cells; conditions: Homo sapiens;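 further: cell growth inhibition of the human line, determined with a cell viability assay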
Description: SANGER: Inhibition of human NCI-H1963 cell growth in a cell viability assay.

PANC-08-13 = assay: cells; conditions: Homo sapiens
Description: SANGER: Inhibition of human PANC-08-13 cell growth in a cell viability assay.

AU565 = assay: cells; conditions: Homo sapiens;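 further: cell viability assay measuring growth inhibition of human AU565 cells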
Description: SANGER: Inhibition of human AU565 cell growth in a cell viability assay.

MIA PaCa-2 = assay: cells; conditions: Homo sapiens;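 further: growth inhibition of MIA PaCa-2 cells, read out with a cell viability assay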
Description: SANGER: Inhibition of human MIA-PaCa-2 cell growth in a cell viability assay.

NCI-H2347 = assay: cells; conditions: Homo sapiens;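 further: growth inhibition of the cell line, read out with a cell viability assay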
Description: SANGER: Inhibition of human NCI-H2347 cell growth in a cell viability assay.

COR-L279 = assay: SANGER: Inhibition of human COR-L279 cell growth in a cell viability assay.
HSC-2 = assay: cells; conditions: Homo sapiens;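 further: growth inhibition of human HSC-2 cells, read out by a cell viability assay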
Description: SANGER: Inhibition of human HSC-2 cell growth in a cell viability assay.

A 172 = assay: cells; conditions: Homo sapiens;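 further: growth inhibition of A172 cells, measured with a cell viability readout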
Description: SANGER: Inhibition of human A172 cell growth in a cell viability assay.

HCC70 = assay: cells; conditions: Homo sapiens;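 further: cell viability assay measuring how strongly the compound suppresses proliferation of HCC70 cells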
Description: SANGER: Inhibition of human HCC70 cell growth in a cell viability assay.

S-117 = assay: cells; conditions: Homo sapiens
Description: SANGER: Inhibition of human S-117 cell growth in a cell viability assay.

ST486 = assay: SANGER: Inhibition of human ST486 cell growth in a cell viability assay.
NCI-H1436 = assay: cells; conditions: Homo sapiens;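 further: growth suppression of human NCI-H1436 cells, determined with a cell viability readout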
Description: SANGER: Inhibition of human NCI-H1436 cell growth in a cell viability assay.

EFM-19 = assay: cells; conditions: Homo sapiens;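 further: growth inhibition of human EFM-19 cells, measured in a cell viability assay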
Description: SANGER: Inhibition of human EFM-19 cell growth in a cell viability assay.

SKG-IIIa = assay: cells; conditions: Homo sapiens;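 further: cell growth inhibition, read out with a cell viability assay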
Description: SANGER: Inhibition of human SKG-IIIa cell growth in a cell viability assay.

Raji = assay: cells; conditions: Homo sapiens;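 further: cell viability assay measuring inhibition of Raji cell growth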
Description: SANGER: Inhibition of human Raji cell growth in a cell viability assay.

PA-1 = assay: cells; conditions: Homo sapiens;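 further: IC50 for suppression of PA-1 cell proliferation, determined with a cell viability read-out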
Description: SANGER: Inhibition of human PA-1 cell growth in a cell viability assay.

SCC-3 = assay: cells; conditions: Homo sapiens;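 further: cell viability assay measuring inhibition of SCC-3 cell growth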
Description: SANGER: Inhibition of human SCC-3 cell growth in a cell viability assay.

BHT-101 = assay: cells; conditions: Homo sapiens
Description: SANGER: Inhibition of human BHT-101 cell growth in a cell viability assay.

KP-4 = assay: cells; conditions: Homo sapiens;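 further: human KP-4 cells, with growth inhibition read out through a cell viability assay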
Description: SANGER: Inhibition of human KP-4 cell growth in a cell viability assay.

CHP-212 = assay: cells; conditions: Homo sapiens
Description: SANGER: Inhibition of human CHP-212 cell growth in a cell viability assay.

NCI-H1703 = assay: cells; conditions: Homo sapiens;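 further: growth inhibition of NCI-H1703 cells, read out via a cell viability assay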
Description: SANGER: Inhibition of human NCI-H1703 cell growth in a cell viability assay.

NCI-H630 = assay: cells; conditions: Homo sapiens;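 further: growth inhibition of NCI-H630 cells, read out with a cell viability assay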
Description: SANGER: Inhibition of human NCI-H630 cell growth in a cell viability assay.

T47D = assay: cells; conditions: Homo sapiens;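 further: growth inhibition of human T47D cells, measured with a cell viability assay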
Description: SANGER: Inhibition of human T47D cell growth in a cell viability assay.

MEL-HO = assay: cells; conditions: Homo sapiens
Description: SANGER: Inhibition of human MEL-HO cell growth in a cell viability assay.

Ca-Ski = assay: cells; conditions: Homo sapiens;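 further: cell viability assay measuring inhibition of Ca-Ski cell growth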
Description: SANGER: Inhibition of human Ca-Ski cell growth in a cell viability assay.

PC-14 = assay: cells; conditions: Homo sapiens;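 further: cell viability assay measuring inhibition of PC-14 cell growth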
Description: SANGER: Inhibition of human PC-14 cell growth in a cell viability assay.

COLO-679 = assay: cells; conditions: Homo sapiens
Description: SANGER: Inhibition of human COLO-679 cell growth in a cell viability assay.

DG-75 = assay: cells; conditions: Homo sapiens;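 further: growth inhibition of DG-75 cells, read out with a cell viability assay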
Description: SANGER: Inhibition of human DG-75 cell growth in a cell viability assay.

A253 cell line = assay: cells; conditions: Homo sapiens;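 further: growth inhibition of A253 cells, read out with a cell viability assay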
Description: SANGER: Inhibition of human A253 cell growth in a cell viability assay.

Detroit 562 = assay: cells; conditions: Homo sapiens;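 further: growth inhibition of human Detroit 562 cells, read out by a cell viability assay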
Description: SANGER: Inhibition of human Detroit562 cell growth in a cell viability assay.

KYSE-180 = assay: cells; conditions: Homo sapiens;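 further: growth inhibition of KYSE-180 cells, read out with a cell viability assay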
Description: SANGER: Inhibition of human KYSE-180 cell growth in a cell viability assay.

U-698-M = assay: cells; conditions: Homo sapiens
Description: SANGER: Inhibition of human U-698-M cell growth in a cell viability assay.

AN3-CA = assay: cells; conditions: Homo sapiens;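 further: growth inhibition of human AN3-CA cells measured by a cell viability assay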
Description: SANGER: Inhibition of human AN3-CA cell growth in a cell viability assay.

SNU-423 = assay: cells; conditions: Homo sapiens
Description: SANGER: Inhibition of human SNU-423 cell growth in a cell viability assay.

A673 = assay: cells; conditions: Homo sapiens;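 further: growth inhibition of human A673 cells, read out through a cell viability assay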
Description: SANGER: Inhibition of human A673 cell growth in a cell viability assay.

C3A = assay: cells; conditions: Homo sapiens;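 further: growth inhibition of C3A human cells, quantified with a cell viability readout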
Description: SANGER: Inhibition of human C3A cell growth in a cell viability assay.

A2780 = assay: cells; conditions: Homo sapiens;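 further: growth inhibition of A2780 cells, read out with a cell viability assay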
Description: SANGER: Inhibition of human A2780 cell growth in a cell viability assay.

KYSE-70 cell line = assay: cells; conditions: Homo sapiens;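 further: cell viability assay read-out, with IC50 expressing suppression of KYSE-70 cell growth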
Description: SANGER: Inhibition of human KYSE-70 cell growth in a cell viability assay.

COLO-792 = assay: cells; conditions: Homo sapiens
Description: SANGER: Inhibition of human COLO-792 cell growth in a cell viability assay.

GDM-1 = assay: cells; conditions: Homo sapiens;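 further: cell viability readout used to measure growth inhibition of human GDM-1 cells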
Description: SANGER: Inhibition of human GDM-1 cell growth in a cell viability assay.

PC-3 = assay: cells; conditions: Homo sapiens;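 further: cell viability assay measuring growth inhibition of PC-3 cells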
Description: SANGER: Inhibition of human PC-3 cell growth in a cell viability assay.

NY = assay: cells; conditions: Homo sapiens
Description: SANGER: Inhibition of human NY cell growth in a cell viability assay.

NCI-H1563 = assay: cells; conditions: Homo sapiens;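 further: growth inhibition of human NCI-H1563 cells, read out with a cell viability assay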
Description: SANGER: Inhibition of human NCI-H1563 cell growth in a cell viability assay.

NCI-H524 = assay: cells; conditions: Homo sapiens;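 further: growth inhibition of human NCI-H524 cells, read out through a cell viability assay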
Description: SANGER: Inhibition of human NCI-H524 cell growth in a cell viability assay.

NCI-H522 = assay: cells; conditions: Homo sapiens;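 further: cell viability assay measuring growth inhibition of human NCI-H522 cells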
Description: SANGER: Inhibition of human NCI-H522 cell growth in a cell viability assay.

EFO-21 = assay: cells; conditions: Homo sapiens;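 further: growth inhibition of EFO-21 cells measured with a viability assay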
Description: SANGER: Inhibition of human EFO-21 cell growth in a cell viability assay.

SMILES: Fc1cc(-c2cc[nH]/c(=N/c3ccc(-n4cnc(N5CCOCC5)n4)cc3)n2)cc(N2CCOCC2)c1
- IC50 (RL): 1.59 µM
- IC50 (KU-19-19): 5.1 µM
- IC50 (SCC-4): 1.25 µM
- IC50 (YKG-1): 0.724 µM
- IC50 (A-375): 0.623 µM
- IC50 (Panc1005): 0.46 µM
- IC50 (HCC1954): 1.22 µM
- IC50 (G-361): 0.266 µM
- IC50 (REH): 0.722 µM
- IC50 (SW48): 0.742 µM
- IC50 (NCI-H1694): 1.5 µM
- IC50 (HCC2157): 0.494 µM
- IC50 (NCI-H441): > 5.12 µM
- IC50 (CA46): 0.333 µM
- IC50 (ME-180): 1.41 µM
- IC50 (DK-MG): > 5.12 µM
- IC50 (OVCAR-5): 0.181 µM
- IC50 (NCI-H1963): 0.873 µM
- IC50 (PANC-08-13): 0.09 µM
- IC50 (AU565): 0.285 µM
- IC50 (MIA PaCa-2): 1.4 µM
- IC50 (NCI-H2347): 1.02 µM
- IC50 (COR-L279): 1.13 µM
- IC50 (HSC-2): 0.223 µM
- IC50 (A 172): 0.669 µM
- IC50 (HCC70): 0.35 µM
- IC50 (S-117): > 5.12 µM
- IC50 (ST486): 0.19 µM
- IC50 (NCI-H1436): 1.18 µM
- IC50 (EFM-19): 0.76 µM
- IC50 (SKG-IIIa): 4.89 µM
- IC50 (Raji): 0.495 µM
- IC50 (PA-1): 0.102 µM
- IC50 (SCC-3): 0.582 µM
- IC50 (BHT-101): 0.667 µM
- IC50 (KP-4): 0.577 µM
- IC50 (CHP-212): 0.286 µM
- IC50 (NCI-H1703): 0.591 µM
- IC50 (NCI-H630): 0.544 µM
- IC50 (T47D): > 5.12 µM
- IC50 (MEL-HO): 0.19 µM
- IC50 (Ca-Ski): 0.532 µM
- IC50 (PC-14): 0.877 µM
- IC50 (COLO-679): 0.25 µM
- IC50 (DG-75): 1.29 µM
- IC50 (A253 cell line): 0.261 µM
- IC50 (Detroit 562): 0.321 µM
- IC50 (KYSE-180): 0.272 µM
- IC50 (U-698-M): 0.282 µM
- IC50 (AN3-CA): 0.335 µM
- IC50 (SNU-423): 0.378 µM
- IC50 (A673): 1.12 µM
- IC50 (C3A): 0.566 µM
- IC50 (A2780): 0.653 µM
- IC50 (KYSE-70 cell line): 0.627 µM
- IC50 (COLO-792): > 5.12 µM
- IC50 (GDM-1): 0.204 µM
- IC50 (PC-3): 4.55 µM
- IC50 (NY): 0.623 µM
- IC50 (NCI-H1563): 0.32 µM
- IC50 (NCI-H524): > 5.12 µM
- IC50 (NCI-H522): 0.887 µM
- IC50 (EFO-21): 0.913 µM

SMILES: CC(C)=CC[C@@H](O)C1=CC(=O)c2c(O)ccc(O)c2C1=O [SHIKONIN]
- IC50 (RL): > 16 µM
- IC50 (KU-19-19): 3.18 µM
- IC50 (SCC-4): 0.441 µM
- IC50 (YKG-1): 0.229 µM
- IC50 (A-375): 0.311 µM
- IC50 (Panc1005): 0.416 µM
- IC50 (HCC1954): 0.902 µM
- IC50 (G-361): 0.473 µM
- IC50 (REH): 0.147 µM
- IC50 (SW48): 1.26 µM
- IC50 (NCI-H1694): 0.84 µM
- IC50 (HCC2157): 0.338 µM
- IC50 (NCI-H441): 15.8 µM
- IC50 (CA46): 0.192 µM
- IC50 (ME-180): 0.279 µM
- IC50 (DK-MG): 9.82 µM
- IC50 (OVCAR-5): 1.12 µM
- IC50 (NCI-H1963): 0.1 µM
- IC50 (PANC-08-13): 10.4 µM
- IC50 (AU565): 1.24 µM
- IC50 (MIA PaCa-2): 0.276 µM
- IC50 (NCI-H2347): 0.968 µM
- IC50 (COR-L279): > 16 µM
- IC50 (HSC-2): 0.223 µM
- IC50 (A 172): 0.47 µM
- IC50 (HCC70): 2.01 µM
- IC50 (S-117): 0.387 µM
- IC50 (ST486): < 0.0625 µM
- IC50 (NCI-H1436): 0.604 µM
- IC50 (EFM-19): 0.212 µM
- IC50 (SKG-IIIa): 4.39 µM
- IC50 (Raji): 0.631 µM
- IC50 (PA-1): 0.201 µM
- IC50 (SCC-3): 1 µM
- IC50 (BHT-101): 1.25 µM
- IC50 (KP-4): 0.501 µM
- IC50 (CHP-212): 1.1 µM
- IC50 (NCI-H1703): 2.3 µM
- IC50 (NCI-H630): 1.3 µM
- IC50 (T47D): 0.223 µM
- IC50 (MEL-HO): 0.149 µM
- IC50 (Ca-Ski): 0.65 µM
- IC50 (PC-14): 1.51 µM
- IC50 (COLO-679): 0.184 µM
- IC50 (DG-75): 1.17 µM
- IC50 (A253 cell line): < 0.0625 µM
- IC50 (Detroit 562): > 16 µM
- IC50 (KYSE-180): 1.01 µM
- IC50 (U-698-M): 0.301 µM
- IC50 (AN3-CA): 0.0796 µM
- IC50 (SNU-423): 0.163 µM
- IC50 (A673): 1.22 µM
- IC50 (C3A): 0.657 µM
- IC50 (A2780): 2.56 µM
- IC50 (KYSE-70 cell line): 2.42 µM
- IC50 (COLO-792): > 16 µM
- IC50 (GDM-1): 2.68 µM
- IC50 (PC-3): 0.859 µM
- IC50 (NY): 1.05 µM
- IC50 (NCI-H1563): 0.626 µM
- IC50 (NCI-H524): > 16 µM
- IC50 (NCI-H522): 0.56 µM
- IC50 (EFO-21): 1.34 µM
